Like-named read-outs stand apart in the source and are kept apart here.
System: Rice (Oryza sativa) 'Jupiter'
Settings: PRE, direct-seeded dryland rice
From the text: Rice (Oryza sativa) was planted in 6″ by 10″ fiber flats filled with sterile top soil. Five rows were made in each flat and the three rice varieties (′Cybonee, ‘Jupiter’, and ‘Taggart’) were planted in the center 3 rows and a row of red rice (Oryza sativa) was planted on either end of the flat. The flats were watered after planting. After application flats were placed in the greenhouse and lightly watered. […] The flats were moved to a greenhouse and watered and fertilized routinely. Studies were conducted using randomized complete block design with four replications. In both studies, visual percent red rice control and rice injury were recorded at 14, 21, and 28 days after treatment (DAT), using a scale of 0 (no control/injury) to 100 (complete plant death).

Compound: CS(=O)(=O)c1ccc(C(=O)C2C(=O)CCCC2=O)c([N+](=O)[O-])c1 [Mesotrione, mesotrione]
- Percent rice injury Jupiter (14 DAT, 12.5 g ai/ha): 0 E %
- Percent rice injury Jupiter (14 DAT, 25 g ai/ha): 0 E %
- Percent rice injury Jupiter (14 DAT, 37.5 g ai/ha): 2 DE %
- Percent rice injury Jupiter (14 DAT, 50 g ai/ha): 3 DE %
- Percent rice injury Jupiter (14 DAT, 62.5 g ai/ha): 5 CD %
- Percent rice injury Jupiter (14 DAT, 75 g ai/ha): 8 BC %
- Percent rice injury Jupiter (14 DAT, 87.5 g ai/ha): 10 BC %
- Percent rice injury Jupiter (14 DAT, 100 g ai/ha): 11 B %
- Percent rice injury Jupiter (21 DAT, 12.5 g ai/ha): 0 E %
- Percent rice injury Jupiter (21 DAT, 25 g ai/ha): 0 E %
- Percent rice injury Jupiter (21 DAT, 37.5 g ai/ha): 2 DE %
- Percent rice injury Jupiter (21 DAT, 50 g ai/ha): 6 CDS %
- Percent rice injury Jupiter (21 DAT, 62.5 g ai/ha): 7 CD %
- Percent rice injury Jupiter (21 DAT, 75 g ai/ha): 10 BC %
- Percent rice injury Jupiter (21 DAT, 87.5 g ai/ha): 11 BC %
- Percent rice injury Jupiter (21 DAT, 100 g ai/ha): 14 B %
- Percent rice injury Jupiter (28 DAT, 12.5 g ai/ha): 0 D %
- Percent rice injury Jupiter (28 DAT, 25 g ai/ha): 0 D %
- Percent rice injury Jupiter (28 DAT, 37.5 g ai/ha): 1 D %
- Percent rice injury Jupiter (28 DAT, 50 g ai/ha): 6 CD %
- Percent rice injury Jupiter (28 DAT, 62.5 g ai/ha): 8 CD %
- Percent rice injury Jupiter (28 DAT, 75 g ai/ha): 21 BC %
- Percent rice injury Jupiter (28 DAT, 87.5 g ai/ha): 26 B %
- Percent rice injury Jupiter (28 DAT, 100 g ai/ha): 56 A %

Source: patent US9635854B2, “Controlling red rice with mesotrione” (FMC Corporation, priority 2014, dated 2017)
